{
  "source": "patent US20240099214A1",
  "about": "“PLANT DEFENCE GENE EXPRESSION” (UPL Corporation Limited, priority 2021, published 2024)",
  "key": {"[1]": {"tested_on": "Subtilisin-like protease-like (gene 9, Solyc01g087800.2)", "assay": "qRT-PCR expression of gene 9 in tomato leaves", "type": "in vivo, Tomato ecotype corbarino", "design": "key to RQ1 / RQ2 / RQ3 / RQ mean: relative expression normalized to a-tubulin housekeeping gene", "description": "(§1) Tomato ecotype “corbarino” reported to be susceptible to TSWV infection was used in the experiment. Plants were grown in pots in a climatic chamber with a photoperiod of 16/8 hour at 25° C.\n(§2) The viral strain (TSWV PV PV-0393) was utilized in the experiment. The virus was mechanically inoculated and propagated on tomato “corbarino”. The inoculum was prepared in an ice-cooled mortar grounding 1 gr of infected tomato tissue in 10 ml of Na-phosphate buffer 0.01M. The fresh prepared inoculum was stored in ice before use. Tomato plants at BBCH16 were dusted with Carborundum 600 mesh and selected leaves were rubbed with some droplets of inoculum. After 5 min. plants were sprayed with sterile water to remove the excess of inoculum and preserve the cell turgor.\n(§3) Four treatments were compared: i) Mock inoculated; ii) TSWV; iii) 0.25% Laminarin; iv) 0.25% Laminarin+TSWV. In the last treatment the virus was inoculated 24 hrs after the laminarin application.\n(§4) Total RNA was extracted from systemic infected tomato leaves by using the Quick-RNA Plant Kit (Zymo Research) following the manufacturer instructions. The extractions were carried out using three plants after 12 h, 24 h, 48 h, 72 h, 7 days after inoculation. Leaves were instantly frozen in liquid nitrogen after cutting to avoid any deterioration of the sample as well as any defense reaction. The RNA concentration was quantified by measuring the absorbance at 260 nm using a Nanodrop 2000 (Thermofisher). The purity of all of the RNA samples was assessed at an absorbance ratio of OD260/280 and OD260/230, while its structural integrity was checked by agarose gel electrophoresis. Only high-quality RNA with OD 260/280 and OD 260/230>2 was used for subsequent steps. Single-stranded cDNA was synthesized from 1 μg of total RNA using an iScript™ Select cDNA Synthesis Kit and random hexamers as primers (Bio-Rad, Milan, Italy), according to the manufacturer's instructions. Three biological replicates were created from the 3 leaves collected to test 15 genes. Alpha tubulin was used as reference gene.\n(§5) qPCR reactions were performed with BioRad (Applied Biosystems, Foster City, CA, USA) using SYBR R Green. Each reaction was performed in 20 μl containing 10 μl of 2× Power SYBR Green PCR Master Mix (Life Technologies), 0.2-0.3 μM primers and cDNA samples diluted 1:20. Each qPCR reaction was performed in triplicate. Reactions were run using the cycling parameter described previously (Reid et al., 2006) and the qPCR data were analyzed by the Ct method (Pfaffl, 2001). In order to analyze the qPCR data, a-tubulin gene was used as housekeeping to determine the relative expression level of the other genes analyzed in this work. For the determination of qPCR efficiency of each primer pairs, a standard curve was performed using the following cDNA dilutions: 1:4, 1:16, 1:64; 1:256 and 1:1024. Every measurement was made in triplicate. The corresponding qPCR efficiencies (E) were calculated for every primer pair with the software 7300 System SDS software (Applied Biosystems, Foster City, CA, USA) according to the equation E=(10−1/slope−1)×100 (Rutledge and Stewart, 2008).\n(§6) The significance of the differences between the gene expressions levels were compared by one-way ANOVA (p=0.01) and the means were separated by Tukey post-hoc test using SPSS ver.26 ([…])."}, "[2]": {"tested_on": "AY093595.1 (gene 13, PR protein)", "assay": "qRT-PCR expression of gene 13 in tomato leaves", "type": "in vivo, Tomato ecotype corbarino", "design": "key: relative expression normalized to a-tubulin housekeeping gene", "description": "as §1, §2, §3, §4, §5, §6"}, "[3]": {"conditions": "Gene_13, 12 hr, treatment Laminarin"}, "[4]": {"conditions": "Gene_13, 12 hr, treatment Laminarin + virus"}, "[5]": {"conditions": "Gene_13, 24 hr, treatment Laminarin"}, "[6]": {"conditions": "Gene_13, 24 hr, treatment Laminarin + virus"}, "[7]": {"conditions": "Gene_13, 48 hr, treatment Laminarin"}, "[8]": {"conditions": "Gene_13, 48 hr, treatment Laminarin + virus"}, "[9]": {"conditions": "Gene_13, 72 hr, treatment Laminarin"}, "[10]": {"conditions": "Gene_13, 72 hr, treatment Laminarin + virus"}},
  "data": [
    {"substance": "laminarin", "values": [
      {"measurement": "RQ1", "setting": "[1]; 12 hr, Laminarin + virus", "value": 0.9838},
      {"measurement": "RQ2", "setting": "[1]; 12 hr, Laminarin + virus", "value": 0.8556},
      {"measurement": "RQ3", "setting": "[1]; 12 hr, Laminarin + virus", "value": 10.797},
      {"measurement": "RQ mean", "setting": "[1]; 12 hr, Laminarin + virus", "value": 0.9730},
      {"measurement": "RQ1", "setting": "[1]; 12 hr, Laminarin alone", "value": 0.8527},
      {"measurement": "RQ2", "setting": "[1]; 12 hr, Laminarin alone", "value": 0.8398},
      {"measurement": "RQ3", "setting": "[1]; 12 hr, Laminarin alone", "value": 10.240},
      {"measurement": "RQ mean", "setting": "[1]; 12 hr, Laminarin alone", "value": 0.9055},
      {"measurement": "RQ1", "setting": "[1]; 24 hr, Laminarin + virus", "value": 0.8394},
      {"measurement": "RQ2", "setting": "[1]; 24 hr, Laminarin + virus", "value": 10.098},
      {"measurement": "RQ3", "setting": "[1]; 24 hr, Laminarin + virus", "value": 11.565},
      {"measurement": "RQ mean", "setting": "[1]; 24 hr, Laminarin + virus", "value": 10.019},
      {"measurement": "RQ1", "setting": "[1]; 24 hr, Laminarin alone", "value": 13.867},
      {"measurement": "RQ2", "setting": "[1]; 24 hr, Laminarin alone", "value": 0.9303},
      {"measurement": "RQ3", "setting": "[1]; 24 hr, Laminarin alone", "value": 10.466},
      {"measurement": "RQ mean", "setting": "[1]; 24 hr, Laminarin alone", "value": 11.212},
      {"measurement": "gene 9 expression compared to TSWV treatment", "setting": "[1]; 48 hr, 0.25% laminarin + TSWV inoculated 24 hrs later", "value": "inverted"},
      {"measurement": "gene 9 expression compared to TSWV treatment", "setting": "[1]; 48 hr, 0.25% laminarin alone", "value": "inverted"},
      {"measurement": "RQ1", "setting": "[1]; 48 hr, Laminarin + virus", "value": 15.088},
      {"measurement": "RQ2", "setting": "[1]; 48 hr, Laminarin + virus", "value": 17.637},
      {"measurement": "RQ3", "setting": "[1]; 48 hr, Laminarin + virus", "value": 13.474},
      {"measurement": "RQ mean", "setting": "[1]; 48 hr, Laminarin + virus", "value": 15.400},
      {"measurement": "RQ1", "setting": "[1]; 48 hr, Laminarin alone", "value": 16.481},
      {"measurement": "RQ2", "setting": "[1]; 48 hr, Laminarin alone", "value": 15.436},
      {"measurement": "RQ3", "setting": "[1]; 48 hr, Laminarin alone", "value": 13.847},
      {"measurement": "RQ mean", "setting": "[1]; 48 hr, Laminarin alone", "value": 15.255},
      {"measurement": "RQ1", "setting": "[1]; 72 hr, Laminarin + virus", "value": 0.9998},
      {"measurement": "RQ2", "setting": "[1]; 72 hr, Laminarin + virus", "value": 10.127},
      {"measurement": "RQ3", "setting": "[1]; 72 hr, Laminarin + virus", "value": 0.9578},
      {"measurement": "RQ mean", "setting": "[1]; 72 hr, Laminarin + virus", "value": 0.9901},
      {"measurement": "RQ1", "setting": "[1]; 72 hr, Laminarin alone", "value": 16.204},
      {"measurement": "RQ2", "setting": "[1]; 72 hr, Laminarin alone", "value": 0.7923},
      {"measurement": "RQ3", "setting": "[1]; 72 hr, Laminarin alone", "value": 18.354},
      {"measurement": "RQ mean", "setting": "[1]; 72 hr, Laminarin alone", "value": 14.160},
      {"measurement": "gene 9 expression", "setting": "[1]; 72 hr, after the treatment with laminarin", "value": "no clear overexpression"},
      {"measurement": "RQ1", "setting": "[2]; [3]", "value": 0.9025},
      {"measurement": "RQ2", "setting": "[2]; [3]", "value": 11.021},
      {"measurement": "RQ3", "setting": "[2]; [3]", "value": 12.323},
      {"measurement": "RQ mean", "setting": "[2]; [3]", "value": 10.790},
      {"measurement": "RQ1", "setting": "[2]; [4]", "value": 13.339},
      {"measurement": "RQ2", "setting": "[2]; [4]", "value": 10.934},
      {"measurement": "RQ3", "setting": "[2]; [4]", "value": 11.013},
      {"measurement": "RQ mean", "setting": "[2]; [4]", "value": 11.762},
      {"measurement": "RQ1", "setting": "[2]; [5]", "value": 13.750},
      {"measurement": "RQ2", "setting": "[2]; [5]", "value": 14.763},
      {"measurement": "RQ3", "setting": "[2]; [5]", "value": 13.300},
      {"measurement": "RQ mean", "setting": "[2]; [5]", "value": 13.938},
      {"measurement": "RQ1", "setting": "[2]; [6]", "value": 13.085},
      {"measurement": "RQ2", "setting": "[2]; [6]", "value": 11.438},
      {"measurement": "RQ3", "setting": "[2]; [6]", "value": 12.395},
      {"measurement": "RQ mean", "setting": "[2]; [6]", "value": 12.306},
      {"measurement": "RQ1", "setting": "[2]; [7]", "value": 31.999},
      {"measurement": "RQ2", "setting": "[2]; [7]", "value": 13.498},
      {"measurement": "RQ3", "setting": "[2]; [7]", "value": 29.839},
      {"measurement": "RQ mean", "setting": "[2]; [7]", "value": 25.112},
      {"measurement": "RQ1", "setting": "[2]; [8]", "value": 25.291},
      {"measurement": "RQ2", "setting": "[2]; [8]", "value": 0.8970},
      {"measurement": "RQ3", "setting": "[2]; [8]", "value": 28.993},
      {"measurement": "RQ mean", "setting": "[2]; [8]", "value": 21.085},
      {"measurement": "RQ1", "setting": "[2]; [9]", "value": 45.838},
      {"measurement": "RQ2", "setting": "[2]; [9]", "value": 96.757},
      {"measurement": "RQ3", "setting": "[2]; [9]", "value": 93.370},
      {"measurement": "RQ mean", "setting": "[2]; [9]", "value": 78.655},
      {"measurement": "RQ1", "setting": "[2]; [10]", "value": 53.674},
      {"measurement": "RQ2", "setting": "[2]; [10]", "value": 42.556},
      {"measurement": "RQ3", "setting": "[2]; [10]", "value": 49.901},
      {"measurement": "RQ mean", "setting": "[2]; [10]", "value": 48.710}
    ]}
  ]
}
